Measured values taken from US20240246918A1, “COMPOUNDS AND COMPOSITIONS AS EIF4E INHIBITORS AND THE USES THEREOF” (Ribometrix, Inc., priority 2022, published 2024).

Experiments:
human eIF4E protein = biological target: T1, human eIF4E protein (Homo sapiens, UniProt P06730); test: Biochemical competitive binding assay (TR-FRET competition, EDA-m7GDP-ATTO-647N probe); conditions: read-out: hEIF4E TR-FRET IC50
T1 construct: purchased Novus NBP-45314
In short: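 IC50 values come from 4-parameter fits of the normalized 665/620 nm TR-FRET ratio. Compound was first incubated 15 min with 4 nM recombinant His-eIF4E bound to 2.5 nM Eu-anti-His antibody, then 15 min with 5 nM m7GDP-ATTO-647N tracer, in pH 7.5 HEPES buffer with 100 mM KCl, Tween-20 and BSA.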

[1] = system: COLO 205 colorectal tumor cells; test: Tumor cell viability inhibition assay (CellTiter-Glo 2.0, 72 hours); assay type: cell-based; conditions: COLO 205 cell viability
In short: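 IC50 derived by 4-parameter fitting after normalizing luminescence to DMSO and max-inhibition wells. Compounds tested as 11 concentrations in 4-fold steps on COLO 205 cells seeded at 1500 per well in RPMI-1640/10% FBS; ATP content measured with CellTiter-Glo 2.0 after 72 h.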

T1 sequence (P06730 whole entry): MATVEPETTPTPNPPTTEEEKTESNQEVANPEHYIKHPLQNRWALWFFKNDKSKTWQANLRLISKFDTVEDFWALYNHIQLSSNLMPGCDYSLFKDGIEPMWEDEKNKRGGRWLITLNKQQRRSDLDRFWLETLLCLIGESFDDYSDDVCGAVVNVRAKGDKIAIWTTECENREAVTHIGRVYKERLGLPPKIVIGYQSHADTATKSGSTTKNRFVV

Structure (SMILES)	IC50 (human eIF4E protein) [µM]	IC50 ([1]; Homo sapiens, COLO 205, 72 h) [µM]	IC50 [1] [µM]
Cc1cc(-c2cc(Cl)ccc2OCCn2c(C)nc3c(c2=O)CC(N2CCC(OC(F)(F)F)CC2)CC3)c2scc(C(=O)NS(=O)(=O)C(F)F)c2n1 (single isomer, unassigned) [Compound 416]	< 0.1	5 to 20	–
Cc1cc(-c2cc(Cl)ccc2OCCn2c(C)nc3c(c2=O)C[C@@H](N2CCC(CC(F)(F)F)CC2)CC3)c2scc(C(=O)O)c2n1 (single isomer, unassigned) [Compound 106]	< 0.1	< 5	–
Cc1cc(-c2cc(Cl)ccc2OCCn2c(C)nc3c(c2=O)CC(N2CC4(CCCN(CC(F)(F)F)C4)C2)CC3)c2scc(C(=O)O)c2n1 (single isomer, unassigned) [Compound 508]	< 0.1	–	< 5
Cc1cc(-c2cc(Cl)ccc2OCCn2c(C)nc3c(c2=O)C[C@H](N2CCCC[C@@H]2C(F)(F)F)CC32CC2)c2scc(C(=O)O)c2n1 (single isomer, unassigned) [Compound 624]	0.1 to 0.5	5 to 20	–
COC1(C(F)(F)F)CCN([C@@H]2CCc3nc(C)n(CCOc4ccc(Cl)cc4-c4cc(C)nc5c(C(=O)O)csc45)c(=O)c3C2)CC1 (single isomer, unassigned) [Compound 450]	< 0.1	< 5	–
Cc1cc(-c2cc(Cl)ccc2OCCn2c(C)nc3c(c2=O)CC(C)(N(C)CC2CC(F)(F)C2)CC3)c2scc(C(=O)O)c2n1 (single isomer, unassigned) [Compound 600]	< 0.1	–	< 5
Cc1cc(-c2cc(Cl)ccc2OCCn2c(C)nc3c(c2=O)CC(C)(N2CCC(C(F)(F)F)CC2)CC3)c2scc(C(=O)O)c2n1 (single isomer, unassigned) [Compound 530]	< 0.1	< 5	–
Cc1cc(-c2cc(Cl)ccc2OCCn2c(C)nc3c(c2=O)C[C@@H](N2CCC[C@@]4(C2)CC4(F)F)CC3(C)C)c2scc(C(=O)O)c2n1 (single isomer, unassigned) [Compound 441]	< 0.1	5 to 20	–
Cc1cc(-c2cc(Cl)ccc2OCCn2c(C)nc3c(c2=O)C[C@@](C)(N2CCC[C@@]4(C2)CC4(F)F)CC3)c2scc(C(=O)O)c2n1 (single isomer, unassigned) [Compound 555]	0.1 to 0.5	5 to 20	–
Cc1cc(-c2cc(Cl)ccc2OCCn2c(C)nc3c(c2=O)C[C@H](N2CCCC(F)(F)CC2)CC32CC2)c2scc(C(=O)O)c2n1 (single isomer, unassigned) [Compound 545]	< 0.1	< 5	–
Cc1cc(-c2cc(Cl)ccc2OCCn2c(C)nc3c(c2=O)C[C@H](N2C[C@H]4CC[C@@H]2CC4OC(F)(F)F)CC32CC2)c2scc(C(=O)O)c2n1 (single isomer, unassigned) [Compound 606]	< 0.1	< 5	–
Cc1cc(-c2cc(Cl)ccc2OCCn2c(C)nc3c(c2=O)C[C@@H](N2CCC[C@@H](C(F)F)C2)CC3)c2scc(C(=O)O)c2n1 (single isomer, unassigned) [Compound 100]	< 0.1	< 5	–
COc1cc(C2CCN([C@@H]3CCc4nc(C)n(CCOc5ccc(Cl)cc5-c5cc(C)nc6c(C(=O)O)csc56)c(=O)c4C3)CC2)ccn1 (single isomer, unassigned) [Compound 575]	< 0.1	< 5	–
Cc1nc2c(c(=O)n1CC#Cc1ccc(Cl)cc1-c1ccnc3c(C(=O)O)csc13)C[C@@H](N1CCC[C@]3(C1)CC3(F)F)CC2 (single isomer, unassigned) [Compound 537, 7-(5-chloro-2-(3-(6-(1,1-difluoro-5-azaspiro[2.5]octan-5-yl)-2-methyl-4-oxo-5,6,7,8-tetrahydroquinazolin-3(4H)-yl)prop-1-yn-1-yl)phenyl)thieno[3,2-b]pyridine-3-carboxylic acid]	< 0.1	5 to 20	–
Cc1cc(-c2cc(Cl)ccc2OCCn2c(C)nc3c(c2=O)C[C@H](N2CCCC[C@@H]2c2cccc(F)c2)CC32CC2)c2scc(C(=O)O)c2n1 (single isomer, unassigned) [Compound 634, 7-(5-chloro-2-(2-(6′-(2-(3-fluorophenyl)piperidin-1-yl)-2′-methyl-4′-oxo-6′,7′-dihydro-4′H-spiro[cyclopropane-1,8′-quinazolin]-3′(5′H)-yl)ethoxy)phenyl)-5-methylthieno[3,2-b]pyridine-3-carboxylic acid]	0.1 to 0.5	> 20	–
Cc1cc(-c2cc(Cl)ccc2OCCn2c(C)nc3c(c2=O)C[C@H](N2CCC4(CCCO4)CC2)CC3)c2scc(C(=O)O)c2n1 (single isomer, unassigned) [Compound 420]	< 0.1	5 to 20	–
Cc1nc2c(c(=O)n1CC#Cc1ccc(Cl)cc1-c1ccnc3c(C(=O)O)csc13)CC(N1CCC(OC(F)(F)F)CC1)CC2 (single isomer, unassigned) [Compound 535]	< 0.1	–	< 5
Cc1cc(-c2cc(Cl)ccc2OCCn2c(C)nc3c(c2=O)C[C@H](N2CC[C@@H](OC(F)(F)F)C(F)(F)C2)CC3)c2scc(C(=O)O)c2n1 (single isomer, unassigned) [Compound 403]	< 0.1	5 to 20	–
Cc1cc(-c2cc(Cl)ccc2OCCn2c(C)nc3c(c2=O)C[C@@H](N2CCC(c4ncco4)CC2)CC3)c2scc(C(=O)O)c2n1 (single isomer, unassigned) [Compound 461]	< 0.1	< 5	–
Cc1cc(-c2cc(Cl)ccc2OCCn2c(C)nc3c(c2=O)C[C@H](N2[C@@H]4CC[C@H]2C[C@H](OC(F)(F)F)C4)CC3)c2scc(C(=O)O)c2n1 (single isomer, unassigned) [Compound 399]	< 0.1	< 5	–
Cc1cc(-c2cc(Cl)ccc2OCCn2c(C)nc3c(c2=O)C[C@@H](N2[C@@H]4CC[C@H]2C[C@@H](OC(F)(F)F)C4)CC3)c2scc(C(=O)O)c2n1 (single isomer, unassigned) [Compound 396]	< 0.1	< 5	–
COc1cc(C2CCN([C@H]3CCc4nc(C)n(CCOc5ccc(Cl)cc5-c5cc(C)nc6c(C(=O)O)csc56)c(=O)c4C3)CC2)ccn1 (single isomer, unassigned) [Compound 576]	< 0.1	< 5	–
Cc1cc(-c2cc(Cl)ccc2OCCn2c(C)nc3c(c2=O)C[C@H](N2CCCC[C@@H]2C)CC3)c2scc(C(=O)O)c2n1 (single isomer, unassigned) [Compound 436]	< 0.1	< 5	–
CO[C@@H]1CCN([C@H]2CCc3nc(C)n(CCOc4ccc(Cl)cc4-c4cc(C)nc5c(C(=O)O)csc45)c(=O)c3C2)CC1(C)C (single isomer, unassigned) [Compound 377]	< 0.1	< 5	–
Cc1cc(-c2cc(Cl)ccc2OCCn2c(C)nc3c(c2=O)C[C@H](N2CCC(c4ncn(C)n4)CC2)CC3)c2scc(C(=O)O)c2n1 (single isomer, unassigned) [Compound 462]	< 0.1	< 5	–
Cc1cc(-c2cc(Cl)ccc2OCCn2c(C)nc3c(c2=O)C[C@H](N2CCC(Oc4ccc(F)cc4F)CC2)CC32CC2)c2scc(C(=O)O)c2n1 (single isomer, unassigned) [Compound 611]	< 0.1	< 5	–
Cc1cc(-c2cc(Cl)ccc2OCCn2c(C)nc3c(c2=O)C[C@H](N2CCC[C@@H](c4ccn(C)n4)C2)CC3)c2scc(C(=O)O)c2n1 (single isomer, unassigned) [Compound 447]	< 0.1	5 to 20	–
